Measured values as given in patent publication US8785489B2, “Heteroaryl substituted indole compounds useful as MMP-13 inhibitors” (Boehringer Ingelheim International GmbH, priority 2008, dated 2014).

Target: MMP13 (Homo sapiens (Human), UniProt P45452)
Assay: EnzoLyte 520 Generic MMP Assay Kit, 5-FAM/QXL 520 FRET peptide substrate
Assay type: biochemical
Text: The EnzoLyte™ 520 Generic MMP Assay Kit (AnaSpec Inc.) can detect the activity of several MMPs including MMP-1, 2, 3, 7, 8, 9, 13, and 14. This kit uses a 5-FAM/QXL™ 520 fluorescence resonance energy transfer (FRET) peptide as an MMP substrate. In the intact FRET peptide, the fluorescence of 5-FAM is quenched by QXL™ 520. Upon cleavage into two separate fragments by MMPs, the fluorescence of 5-FAM is recovered, and can be monitored at excitation/emission wavelengths=490 nm/520 nm. The assays are performed in a convenient 96-well or 384-well microplate format.

IC50 | SMILES
14 nM | Cc1noc(-c2cc3cc(-c4cc(C(=O)NCc5ccncc5)ncc4C)ccc3[nH]2)n1
0.2 nM | Cc1noc(-c2cc3cc(-c4cc(C(=O)NCc5ccc(C(=O)O)cc5)ncc4C)ccc3[nH]2)n1
39 nM | CCOC(=O)c1cc2cc(-c3nc(C(=O)OCC)[nH]c3C)ccc2[nH]1 [5-(2-Ethoxycarbonyl-5-methyl-1H-imidazol-4-yl)-1H-indole-2-carboxylic acid ethyl ester]
190 nM | COC(=O)c1cc(-c2ccc3[nH]c(-c4nc(C)no4)cc3c2)n(C)n1
3 nM | Cc1noc(-c2cc3cc(-c4nc(C(=O)NCc5ccccn5)[nH]c4C)ccc3[nH]2)n1
1.5 nM | Cn1cc(-c2cc3cc(-c4cc(C(=O)NCc5ccc(C(=O)O)cc5)nn4C)ccc3[nH]2)cn1
95 nM | CCOC(=O)c1cc2nc(-c3nc(C(=O)NCc4ccncc4)[nH]c3C)ccc2[nH]1
3 nM | CCOC(=O)c1cc2cc(-c3cc(C(=O)NCc4ccc(CC(=O)O)cc4)nn3C)ccc2[nH]1
7 nM | CCOC(=O)c1cc2cc(-c3nc(C(=O)NCc4ccncc4)[nH]c3C)ncc2[nH]1
0.9 nM | Cc1noc(-c2cc3cc(-c4nc(C(=O)NCc5noc(C)n5)[nH]c4C)ccc3[nH]2)n1
2 nM | Cc1noc(-c2cc3cc(-c4nc(C(=O)NCc5ccc(C#N)cc5)[nH]c4C)ccc3[nH]2)n1
2 nM | Cc1noc(-c2cc3cc(-c4nc(C(=O)NCc5nccs5)[nH]c4C)ccc3[nH]2)n1 [5-methyl-4-[2-(3-methyl-1,2,4-oxadiazol-5-yl)-1H-indol-5-yl]-N-(1,3-thiazol-2-ylmethyl)-1H-imidazole-2-carboxamide]
17 nM | Cc1noc(-c2cc3cc(-c4nc(C(=O)NCc5nnc(C)[nH]5)[nH]c4C)ccc3[nH]2)n1
24 nM | Cc1noc(-c2cc3cc(-c4cc(C(=O)NCc5cc(C)on5)nn4C)ccc3[nH]2)n1 [1-methyl-N-[(5-methylisoxazol-3-yl)methyl]-5-[2-(3-methyl-1,2,4-oxadiazol-5-yl)-1H-indol-5-yl]-1H-pyrazole-3-carboxamide]
97 nM | CCOC(=O)c1cc2cc(-c3cc(C(=O)NCc4ccncc4)nn3C)ccc2[nH]1
0.2 nM | Cc1noc(-c2cc3cc(-c4cc(C(=O)NCc5ccc(C(=O)O)cc5)nn4C)ccc3[nH]2)n1
1.3 nM | Cc1noc(-c2cc3cc(-c4nc(C(=O)NCc5ccnc(N)c5)[nH]c4C)ccc3[nH]2)n1
116 nM | Cc1noc(-c2cc3cc(-c4cc(C(=O)NCC5CCOCC5)nn4C)ccc3[nH]2)n1 [1-methyl-5-[2-(3-methyl-1,2,4-oxadiazol-5-yl)-1H-indol-5-yl]-N-(tetrahydro-2H-pyran-4-ylmethyl)-1H-pyrazole-3-carboxamide]
2 nM | CCOC(=O)c1cc2cc(-c3nc(C(=O)NCc4ccncc4)[nH]c3C)ccc2[nH]1
12 nM | Cc1noc(-c2cc3cc(-c4ccnc(C(=O)NCc5ccncc5)c4)ccc3[nH]2)n1
26 nM | Cc1noc(-c2cc3cc(-c4cc(C(=O)NCc5ccc(F)cc5)nn4C)ccc3[nH]2)n1

IC50 | SMILES
94 nM | CCOC(=O)c1cc2cc(-c3ccnc(C(=O)NCc4ccncc4)c3)ccc2[nH]1 [5-{2-[(Pyridin-4-ylmethyl)-carbamoyl]-pyridin-4-yl}-1H-indole-2-carboxylic acid ethyl ester]
18 nM | Cc1noc(-c2cc3cc(-c4nc(C(=O)NCc5ccc(C(O)C(F)(F)F)cc5)[nH]c4C)ccc3[nH]2)n1 (stereo not shown)
125 nM | CCOC(=O)c1cc2cc(-c3cc(C(=O)NCc4ccc(=O)[nH]c4)nn3C)ccc2[nH]1
48 nM | Cn1nc(C(=O)NCc2ccc(C(=O)O)cc2)cc1-c1ccc2[nH]c(-c3ccc(F)nc3)cc2c1
2 nM | Cc1noc(-c2cc3cc(-c4nc(C(=O)NCc5cccs5)[nH]c4C)ccc3[nH]2)n1
6 nM | Cc1noc(-c2cc3cc(-c4nc(C(=O)NCc5ccc(F)cc5)[nH]c4C)ccc3[nH]2)n1
1.9 nM | Cc1noc(-c2cc3cc(-c4nc(C(=O)NCC5COCCO5)[nH]c4C)ccc3[nH]2)n1 (stereo not shown)
38 nM | Cc1nc(-c2cc3cc(-c4ccnc(C(=O)NCc5ccncc5)c4)ccc3[nH]2)no1
2 nM | Cn1nc(C(=O)NCc2ccc(C(=O)O)cc2)cc1-c1ccc2[nH]c(-c3ccnc(F)c3)cc2c1
53 nM | Cc1cc(-c2cc3cc(-c4cc(C(=O)NCc5ccc(C(=O)O)cc5)nn4C)ccc3[nH]2)cc(F)n1
15 nM | Cc1noc(-c2cc3cc(-c4nc(C(=O)NC(C)c5cccs5)[nH]c4C)ccc3[nH]2)n1 (stereo not shown)
0.8 nM | Cn1nc(C(=O)NCc2ccc(C(=O)O)cc2)cc1-c1ccc2[nH]c(-c3ccncc3)cc2c1
1.2 nM | Cc1noc(-c2cc3cc(-c4nc(C(=O)NCc5ccnnc5)[nH]c4C)ccc3[nH]2)n1
0.2 nM | Cc1noc(-c2cc3cc(-c4nc(C(=O)NCc5ccc(=O)[nH]c5)[nH]c4C)ccc3[nH]2)n1
3 nM | Cn1nc(C(=O)NCc2ccc(C(=O)O)cc2)cc1-c1ccc2[nH]c(-c3cccnc3)cc2c1
45 nM | Cc1noc(-c2cc3cc(-c4cc(C(=O)NCc5ccoc5)nn4C)ccc3[nH]2)n1
0.6 nM | Cc1noc(-c2cc3cc(-c4nc(C(=O)NCc5cccnc5)[nH]c4C)ccc3[nH]2)n1
0.7 nM | CCOC(=O)c1cc2cc(-c3ccnc(C(=O)NCc4ccc(C(=O)O)cc4)c3)ccc2[nH]1
18 nM | Cc1[nH]c(C(=O)NCc2ccncc2)nc1-c1ccc2[nH]c(-c3nc(C(C)C)no3)cc2c1
64 nM | Cc1noc(-c2cc3cc(-c4nc(C(=O)N5CCCCC5)[nH]c4C)ccc3[nH]2)n1
10 nM | Cc1noc(-c2cc3cc(-c4cc(C(=O)NCc5ccc(C#N)cc5)nn4C)ccc3[nH]2)n1

IC50 | SMILES
1.6 nM | Cn1nc(C(=O)NCc2ccc(C(=O)O)cc2)cc1-c1ccc2[nH]c(-c3ncccn3)cc2c1
44 nM | Cc1noc(-c2cc3cc(-c4cc(C(=O)NCc5cccs5)nn4C)ccc3[nH]2)n1
43 nM | Cn1nc(C(=O)NCc2ccc(C(=O)O)cc2)cc1-c1ccc2[nH]c(C3=NCCO3)cc2c1
19 nM | Cc1noc(-c2cc3cc(-c4cc(C(=O)NCc5ccno5)nn4C)ccc3[nH]2)n1 [N-(isoxazol-5-ylmethyl)-1-methyl-5-[2-(3-methyl-1,2,4-oxadiazol-5-yl)-1H-indol-5-yl]-1H-pyrazole-3-carboxamide]
10 nM | Cc1noc(-c2cc3cc(-c4cc(C(=O)NCc5cncs5)nn4C)ccc3[nH]2)n1 [1-methyl-5-[2-(3-methyl-1,2,4-oxadiazol-5-yl)-1H-indol-5-yl]-N-(1,3-thiazol-5-ylmethyl)-1H-pyrazole-3-carboxamide]
1.1 nM | Cc1noc(-c2cc3cc(-c4nc(C(=O)NCC5CCOCC5)[nH]c4C)ccc3[nH]2)n1 [5-methyl-4-[2-(3-methyl-1,2,4-oxadiazol-5-yl)-1H-indol-5-yl]-N-(tetrahydro-2H-pyran-4-ylmethyl)-1H-imidazole-2-carboxamide]
3 nM | Cc1noc(-c2cc3cc(-c4nc(C(=O)NCc5ccoc5)[nH]c4C)ccc3[nH]2)n1
113 nM | Cc1noc(-c2cc3cc(-c4nc(C(=O)N5CCCC5)[nH]c4C)ccc3[nH]2)n1
26 nM | Cc1noc(-c2cc3cc(-c4nc(C(=O)NC5CC5)[nH]c4C)ccc3[nH]2)n1 [N-cyclopropyl-5-methyl-4-[2-(3-methyl-1,2,4-oxadiazol-5-yl)-1H-indol-5-yl]-1H-imidazole-2-carboxamide]
5 nM | Cn1nc(C(=O)NCc2ccc(C(=O)O)cc2)cc1-c1ccc2[nH]c(-c3cncnc3)cc2c1
8 nM | Cc1noc(-c2cc3cc(-c4nc(C(=O)NCC5CC5)[nH]c4C)ccc3[nH]2)n1 [N-(cyclopropylmethyl)-5-methyl-4-[2-(3-methyl-1,2,4-oxadiazol-5-yl)-1H-indol-5-yl]-1H-imidazole-2-carboxamide]
73 nM | Cc1noc(-c2cc3cc(-c4cc(C(=O)NCc5nccs5)nn4C)ccc3[nH]2)n1 [1-methyl-5-[2-(3-methyl-1,2,4-oxadiazol-5-yl)-1H-indol-5-yl]-N-(1,3-thiazol-2-ylmethyl)-1H-pyrazole-3-carboxamide]
10 nM | Cc1noc(-c2cc3cc(-c4cc(C(=O)NCc5cnn(C)c5)nn4C)ccc3[nH]2)n1 [1-methyl-5-[2-(3-methyl-1,2,4-oxadiazol-5-yl)-1H-indol-5-yl]-N-[(1-methyl-1H-pyrazol-4-yl)methyl]-1H-pyrazole-3-carboxamide]
125 nM | Cc1noc(-c2cc3cc(-c4cc(C(=O)NCc5ccnn5C)nn4C)ccc3[nH]2)n1 [1-methyl-5-[2-(3-methyl-1,2,4-oxadiazol-5-yl)-1H-indol-5-yl]-N-[(1-methyl-1H-pyrazol-5-yl)methyl]-1H-pyrazole-3-carboxamide]
88 nM | Cc1cc(Cn2cc(-c3nc(C(=O)NCc4ccc(C(=O)O)cc4)[nH]c3C)cn2)ccc1F
106 nM | Cc1noc(-c2cc3cc(-c4nc(C(=O)NC5CCOCC5)[nH]c4C)ccc3[nH]2)n1
4 nM | Cc1noc(-c2cc3cc(-c4cc(C(=O)NCc5ccnc(Cl)c5)nn4C)ccc3[nH]2)n1 [N-[(2-chloropyridin-4-yl)methyl]-1-methyl-5-[2-(3-methyl-1,2,4-oxadiazol-5-yl)-1H-indol-5-yl]-1H-pyrazole-3-carboxamide]
5 nM | Cc1noc(-c2cc3cc(-c4nc(C(=O)NCC5CCCCO5)[nH]c4C)ccc3[nH]2)n1 (stereo not shown)
5 nM | Cc1noc(-c2cc3cc(-c4nc(C(=O)NCCN5CCOCC5)[nH]c4C)ccc3[nH]2)n1
0.95 nM | Cc1noc(-c2cc3cc(-c4nc(C(=O)NCc5ccnc(C#N)c5)[nH]c4C)ccc3[nH]2)n1 [N-[(2-cyanopyridin-4-yl)methyl]-5-methyl-4-[2-(3-methyl-1,2,4-oxadiazol-5-yl)-1H-indol-5-yl]-1H-imidazole-2-carboxamide]
6 nM | Cc1[nH]c(C(=O)NCc2ccncc2)nc1-c1ccc2[nH]c(-c3nc(C4CC4)no3)cc2c1

SMILES | IC50
CCOC(=O)c1cc2cc(-c3cc(C(=O)NCc4ccncc4)ncc3C)ccc2[nH]1 | 155 nM
